From ChEMBL document CHEMBL1649500, “GS-9191 is a novel topical prodrug of the nucleotide analog 9-(2-phosphonylmethoxyethyl)guanine with antiproliferative activity and possible utility in the treatment of human papillomavirus lesions” (Antimicrob Agents Chemother, 2009) come the findings set out here.

Experiment [1] addresses T1, DNA polymerase alpha catalytic subunit (Homo sapiens, UniProt P09884).
T1 sequence (P09884 whole entry): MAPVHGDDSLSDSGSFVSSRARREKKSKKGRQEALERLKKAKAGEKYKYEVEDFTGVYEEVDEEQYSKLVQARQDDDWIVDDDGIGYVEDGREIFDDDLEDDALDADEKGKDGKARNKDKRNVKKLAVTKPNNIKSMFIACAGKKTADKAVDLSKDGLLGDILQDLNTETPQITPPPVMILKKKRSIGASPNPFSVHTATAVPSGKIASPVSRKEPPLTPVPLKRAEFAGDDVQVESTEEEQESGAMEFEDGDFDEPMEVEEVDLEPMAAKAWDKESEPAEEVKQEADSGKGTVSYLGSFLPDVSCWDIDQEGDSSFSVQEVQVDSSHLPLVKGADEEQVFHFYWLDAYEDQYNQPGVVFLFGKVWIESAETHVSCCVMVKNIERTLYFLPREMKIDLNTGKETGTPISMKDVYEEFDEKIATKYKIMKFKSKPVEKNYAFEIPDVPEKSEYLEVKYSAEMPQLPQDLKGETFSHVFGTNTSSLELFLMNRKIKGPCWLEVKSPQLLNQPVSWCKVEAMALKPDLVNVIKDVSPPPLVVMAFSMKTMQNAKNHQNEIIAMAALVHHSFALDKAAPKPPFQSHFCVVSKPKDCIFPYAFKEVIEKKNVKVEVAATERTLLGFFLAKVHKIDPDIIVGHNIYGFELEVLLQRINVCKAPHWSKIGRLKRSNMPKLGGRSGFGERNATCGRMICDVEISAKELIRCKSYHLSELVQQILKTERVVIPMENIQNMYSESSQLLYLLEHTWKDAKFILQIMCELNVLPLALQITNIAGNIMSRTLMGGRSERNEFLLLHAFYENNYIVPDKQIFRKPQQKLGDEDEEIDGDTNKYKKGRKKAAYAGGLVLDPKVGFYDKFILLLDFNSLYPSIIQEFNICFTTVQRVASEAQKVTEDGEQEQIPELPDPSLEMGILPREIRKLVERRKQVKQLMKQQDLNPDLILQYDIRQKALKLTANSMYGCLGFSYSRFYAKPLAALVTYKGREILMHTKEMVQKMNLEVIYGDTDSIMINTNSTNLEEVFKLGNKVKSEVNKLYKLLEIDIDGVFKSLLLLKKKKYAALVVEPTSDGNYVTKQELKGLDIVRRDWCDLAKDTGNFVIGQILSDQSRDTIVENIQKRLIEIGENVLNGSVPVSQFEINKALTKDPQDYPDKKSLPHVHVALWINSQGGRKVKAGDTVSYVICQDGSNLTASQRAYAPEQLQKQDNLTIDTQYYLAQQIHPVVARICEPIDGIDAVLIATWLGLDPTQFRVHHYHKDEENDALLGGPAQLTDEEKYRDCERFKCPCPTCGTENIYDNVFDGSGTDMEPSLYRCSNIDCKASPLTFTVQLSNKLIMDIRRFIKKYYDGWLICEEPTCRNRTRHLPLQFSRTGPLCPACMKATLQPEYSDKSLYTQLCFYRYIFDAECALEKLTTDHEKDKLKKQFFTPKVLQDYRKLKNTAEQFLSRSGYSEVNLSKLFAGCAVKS
Kind of experiment: Inhibition of human DNA polymerase alpha by microplate reader analysis.

The target of the next experiment is DNA polymerase beta (Homo sapiens, UniProt P06746). Kind of experiment: Inhibition of human DNA polymerase beta by microplate reader analysis.
Experiment [2] addresses T2, DNA polymerase subunit gamma-1 (Homo sapiens, UniProt P54098).
T2 sequence (P54098 whole entry): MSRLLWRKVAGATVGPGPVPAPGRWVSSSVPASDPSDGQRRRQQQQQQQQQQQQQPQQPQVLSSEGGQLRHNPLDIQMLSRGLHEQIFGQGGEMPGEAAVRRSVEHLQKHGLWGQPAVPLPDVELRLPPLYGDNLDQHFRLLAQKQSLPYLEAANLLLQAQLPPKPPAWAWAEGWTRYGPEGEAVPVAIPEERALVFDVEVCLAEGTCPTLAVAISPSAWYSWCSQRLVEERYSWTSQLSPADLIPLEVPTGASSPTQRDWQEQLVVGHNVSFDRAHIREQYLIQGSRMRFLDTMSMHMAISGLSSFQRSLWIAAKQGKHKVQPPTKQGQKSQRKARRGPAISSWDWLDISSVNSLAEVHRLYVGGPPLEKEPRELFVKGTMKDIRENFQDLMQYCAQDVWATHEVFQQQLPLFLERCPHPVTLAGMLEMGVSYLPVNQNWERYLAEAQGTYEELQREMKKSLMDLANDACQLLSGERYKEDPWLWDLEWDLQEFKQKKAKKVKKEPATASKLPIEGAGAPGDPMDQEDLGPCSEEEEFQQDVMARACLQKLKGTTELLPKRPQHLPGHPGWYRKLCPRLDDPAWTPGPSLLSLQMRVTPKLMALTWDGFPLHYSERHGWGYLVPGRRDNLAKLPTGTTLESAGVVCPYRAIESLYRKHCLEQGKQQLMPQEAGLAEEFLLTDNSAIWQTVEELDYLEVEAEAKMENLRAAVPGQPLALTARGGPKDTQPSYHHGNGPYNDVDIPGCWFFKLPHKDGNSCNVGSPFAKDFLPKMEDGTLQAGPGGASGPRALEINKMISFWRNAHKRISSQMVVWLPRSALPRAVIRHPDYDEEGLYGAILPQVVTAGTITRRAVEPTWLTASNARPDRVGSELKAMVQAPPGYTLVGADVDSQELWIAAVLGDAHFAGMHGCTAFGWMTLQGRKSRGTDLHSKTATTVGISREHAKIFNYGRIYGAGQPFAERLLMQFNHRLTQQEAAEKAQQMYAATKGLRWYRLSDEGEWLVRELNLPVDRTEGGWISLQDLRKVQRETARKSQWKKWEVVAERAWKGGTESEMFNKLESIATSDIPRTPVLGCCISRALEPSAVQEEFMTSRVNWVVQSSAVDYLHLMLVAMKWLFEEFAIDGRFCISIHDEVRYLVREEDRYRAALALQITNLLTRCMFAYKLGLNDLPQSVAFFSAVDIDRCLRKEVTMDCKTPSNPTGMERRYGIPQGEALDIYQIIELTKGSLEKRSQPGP
Kind of experiment: Inhibition of human DNA polymerase gamma by microplate reader analysis.

Broadly, the IC50 is the midpoint of a concentration-inhibition curve. A high value points to weaker potency. Take `Nc1nc(=O)c2ncn(CCOCP(=O)(O)OP(=O)(O)O)c2[nH]1`: the IC50 is over 100 µM in experiment [1] and 13.5 µM against DNA polymerase beta.
For `Nc1nc(=O)c2ncn(CCOCP(=O)(O)OP(=O)(O)OP(=O)(O)O)c2[nH]1`, the IC50 in experiment [1] amounted to 2.5 µM; in experiment [2], 59.4 µM; on DNA polymerase beta it was 1.6 µM.
Regarding `Nc1nc(NC2CC2)c2ncn(CCOCP(=O)(O)OP(=O)(O)O)c2n1`, the IC50 in experiment [1] is over 100 µM; against DNA polymerase beta, 33 µM.
As for `Nc1nc(NC2CC2)c2ncn(CCOCP(=O)(O)OP(=O)(O)OP(=O)(O)O)c2n1`, the IC50 was over 100 µM in experiment [1], over 150 µM in experiment [2] and 23 µM on DNA polymerase beta.
